Reference: BindingDB's records for doi:10.7270/Q2765CSM (Burnham Center For Chemical Genomics, 2011)

Target: T1, Hexokinase-1 (Homo sapiens, UniProt P19367)
T1 sequence (P19367 whole entry): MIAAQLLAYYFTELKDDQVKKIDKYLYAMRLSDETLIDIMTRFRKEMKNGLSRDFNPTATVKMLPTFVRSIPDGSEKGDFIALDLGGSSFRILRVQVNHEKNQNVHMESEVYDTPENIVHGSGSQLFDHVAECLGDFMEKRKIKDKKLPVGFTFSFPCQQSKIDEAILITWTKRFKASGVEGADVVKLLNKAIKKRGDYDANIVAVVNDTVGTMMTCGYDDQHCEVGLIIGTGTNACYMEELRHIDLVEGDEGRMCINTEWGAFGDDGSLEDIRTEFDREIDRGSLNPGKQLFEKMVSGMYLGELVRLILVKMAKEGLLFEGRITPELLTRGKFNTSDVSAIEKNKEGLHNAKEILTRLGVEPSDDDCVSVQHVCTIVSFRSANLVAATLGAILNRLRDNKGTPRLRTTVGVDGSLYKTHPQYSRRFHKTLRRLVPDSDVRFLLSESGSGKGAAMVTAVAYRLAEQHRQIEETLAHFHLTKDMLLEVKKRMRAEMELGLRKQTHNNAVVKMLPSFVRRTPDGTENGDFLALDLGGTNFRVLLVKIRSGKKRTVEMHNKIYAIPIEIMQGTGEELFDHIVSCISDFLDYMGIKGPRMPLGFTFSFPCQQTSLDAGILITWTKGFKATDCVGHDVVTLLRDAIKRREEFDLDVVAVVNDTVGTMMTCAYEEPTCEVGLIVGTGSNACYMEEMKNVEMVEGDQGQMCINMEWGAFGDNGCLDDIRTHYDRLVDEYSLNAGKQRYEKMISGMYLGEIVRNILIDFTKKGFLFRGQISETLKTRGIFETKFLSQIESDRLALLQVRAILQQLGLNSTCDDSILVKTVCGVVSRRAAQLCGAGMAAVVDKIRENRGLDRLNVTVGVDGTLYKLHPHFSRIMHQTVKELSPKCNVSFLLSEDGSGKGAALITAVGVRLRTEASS
Assay: HK1 enzyme activation by HKDC1 hits – biochemical, selectivity assay for HKDC1 activator project, dose response (AID 504762)

EC50 | SMILES
34.1 µM | CC(=O)Oc1cccc2c(O)c3c(c(O)c12)CC=CC3OC(C)=O (centres undefined) [SMR001574207]
30.8 µM | Oc1c(Cl)c(N=Cc2cccnc2)c(O)c2ccccc12 [MLS001195521]
> 80 µM | Cc1[nH]n(-c2ccccc2)c(=O)c1CN=Nc1nncc(-c2ccccc2)n1 [(4E)-5-methyl-2-phenyl-4-[[(5-phenyl-1,2,4-triazin-3-yl)hydrazo]methylidene]-3-pyrazolone]
> 80 µM | CC(C)(C)c1nnc(N=NCc2cc(Br)ccc2O)n(N)c1=O [4-azanyl-3-[2-[(E)-(3-bromanyl-6-oxidanylidene-cyclohexa-2,4-dien-1-ylidene)methyl]hydrazinyl]-6-tert-butyl-1,2,4-triazin-5-one]
> 80 µM | CCCOC1=CC(=O)C(C=NNC(=S)Nc2ccccc2[N+](=O)[O-])C=C1 (centres undefined) [1-(2-nitrophenyl)-3-[[(E)-(6-oxo-4-propoxy-1-cyclohexa-2,4-dienylidene)methyl]amino]thiourea]
> 80 µM | CC(N=Nc1nc2ccccc2o1)c1cc2ccccc2cn1 (centres undefined)
37.1 µM | O=C1C(=C2C(=O)c3ccccc3C2=O)Nc2ccccc21 [MLS000071738]
42.3 µM | Nn1cnnc1N=NCc1cc(Br)cc(Br)c1O

SMILES | EC50
Cc1ccc2c(C)c3ccc4ccccc4c3c[n+]2c1 [MLS002701915] | 5.2 µM
